Measurements taken from patent US8735584B2 (Merck Patent GmbH, priority 2008, dated 2014).

What follows are molecules tested against T1, GST-Aurora A (Homo sapiens, UniProt O14965) (assay: Aurora A IC50, Caliper LC3000 mobility shift assay). Details: LC3000 method; 15 uM ATP (the KM value); read-out: Aurora Kinase A Activity (IC50).
T1 construct: N-terminal GST fusion with full length Aurora A (1-403 amino acids); purchased Carna Biosciences 05-101
T1 sequence (O14965 1-403): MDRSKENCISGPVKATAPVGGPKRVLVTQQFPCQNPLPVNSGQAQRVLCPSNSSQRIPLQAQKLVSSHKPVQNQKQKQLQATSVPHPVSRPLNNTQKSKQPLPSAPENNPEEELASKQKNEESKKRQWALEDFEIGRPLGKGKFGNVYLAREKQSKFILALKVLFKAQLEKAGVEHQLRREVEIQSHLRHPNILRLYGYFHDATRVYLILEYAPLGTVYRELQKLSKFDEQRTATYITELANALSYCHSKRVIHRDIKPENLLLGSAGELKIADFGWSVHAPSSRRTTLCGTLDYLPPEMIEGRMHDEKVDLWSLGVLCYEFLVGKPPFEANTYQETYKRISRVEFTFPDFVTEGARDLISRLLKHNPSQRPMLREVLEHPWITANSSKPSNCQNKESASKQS
Assay type: biochemical
Procedure: The Aurora assays described here are performed on two Caliper Life Sciences systems: the LC3000 and the Desktop Profiler. These provide data on enzyme activity via measurement of the relative amounts of phosphorylated or unphosphorylated fluorescently labelled substrate peptide at the end of an enzymatic reaction. These different states of peptide are resolved by applying a potential difference across the sample. The presence of the charged phosphate group on the product (as opposed to the substrate) causes a different peptide mobility between the two peptides. This is visualized by excitation of the fluorescent label on the substrate and product peptides and represented as peaks within the analysis software.
In order to measure inhibitor activity of Aurora A inhibitors in the Caliper Life Sciences LC3000, a TTP Mosquito liquid handling instrument is used to place 0.25 ul of the appropriate concentration of inhibitor in 100% DMSO (for a dose response curve calculation) into each well of a 384-well plate. To this reaction components are added to a final volume of 25 ul: • 0.067 ng/ul GST-Aurora A (Carna Biosciences 05-101. N-terminal GST fusion with full length Aurora A (1-403 amino acids), accession number NP 940835.1). • 15 uM ATP (Fluke, 02055) • 1 mM DTT (Sigma, D0632) • 1 mM MgCl2 (Sigma, M1028) • 1 uM substrate peptide (sequence FITC-LRRASLG-(CONH2), synthesized by Tufts Peptide Synthesis service. • 100 mM HEPES pH 7.5 (Calbiochem, 391338) • 0.015% Brij-35 (Sigma, B4184)
The reaction is incubated for 90 min at 25 C, and then stopped by the addition of 70 ul of Stop buffer (100 mM HEPES pH 7.5, 0.015% Brij-35, 10 mM EDTA (Sigma, E7889)).
The plate is read on a Caliper LC3000 in an Off-Chip mobility shift assay format, using the following parameters for a 12-sipper chip: screening pressure—1.8 psi, upstream voltage—2700, downstream voltage—1000. These conditions cause unphosphorylated substrate and phosphorylated product peptide to resolve as separate peaks allowing direct measurement of percentage of conversion of substrate to product. The percent conversion can be plotted against concentration of inhibitor to produce a sigmoidal dose response curve, from which an 1050 can be calculated using XLFit for Microsoft Excel.
In the desired wells of a 384-well plate, Aurora A (0.067 ng/ul) was incubated with 15 uM ATP (the KM value), 1 mM DTT, 1 mM MgCl2, and 1 uM peptide substrate (sequence FITC-LRRASLG-(CONH2), FITC=fluorescein isothiocyanate) in 100 mM HEPES pH 7.5 and 0.015% Brij-35 buffer. The reaction was incubated for 90 min at 25 C, and then stopped by the addition of 45 ul of Stop buffer (100 mM HEPES ph 7.5, 0.015% Brij-35, 10 mM EDTA).
The plate was read in a Caliper LC 3000 in an Off-Chip mobility shift assay format, using the following parameters: screening pressure—1.8 psi, upstream voltage—2700, downstream voltage—1000. These conditions cause unphosphorylated substrate peptide to resolve as a peak before that of the phosphorylated peptide product.
In the following table “+” means >100 nM, “++” means 11-100 nM, and “+++” means <11 nM.
An IC50 of 11 to 100 nM was found for `CN1CCN(c2ccc3c(=O)[nH]c4nccc(Nc5ccc(NC(=O)c6ccccc6)cc5)c4c3c2)CC1` [Compound 294, N-(4-(9-(4-methylpiperazin-1-yl)-6-oxo-5,6-dihydrobenzo[c][1,8]naphthyridin-1-ylamino)phenyl)benzamide] in this work.
An IC50 greater than 100 nM was found for `CN(C)CCNC(=O)c1ccc2c(=O)[nH]c3nccc(Cl)c3c2c1` [Compound 296, 1-Chloro-N-(2-(dimethylamino)ethyl)-6-oxo-5,6-dihydrobenzo[c][1,8]naphthyridine-9-carboxamide] in this work.
An IC50 of less than 11 nM was found for `CN(C)CCNC(=O)c1ccc2c(=O)[nH]c3nccc(Nc4ccc(NC(=O)c5ccc(F)cc5C(F)(F)F)cc4)c3c2c1` [Compound 297, N-(2-(Dimethylamino)ethyl)-1-(4-(4-fluoro-2-(trifluoromethyl)benzamido)phenylamino)-6-oxo-5,6-dihydrobenzo[c][1,8]naphthyridine-9-carboxamide] in this work.
An IC50 of less than 11 nM was found for `CN(C)CCNC(=O)c1ccc2c(=O)[nH]c3nccc(Nc4ccc(NC(=O)c5ccc(F)c(F)c5)cc4)c3c2c1` [Compound 298, 1-(4-(3,4-Difluorobenzamido)phenylamino)-N-(2-(dimethylamino)ethyl)-6-oxo-5,6-dihydrobenzo[c][1,8]naphthyridine-9-carboxamide] in this work.
An IC50 of 11 to 100 nM was found for `O=C(Cc1ccc(Nc2ccnc3[nH]c(=O)c4ccccc4c23)cc1)Nc1ccccc1` [Compound 303, 2-(4-(6-Oxo-5,6-dihydrobenzo[c][1,8]naphthyridin-1-ylamino)phenyl)-N phenylacetamide] in this work.
An IC50 greater than 100 nM was found for `Cc1cc(Nc2ccnc3[nH]c(=O)c4ccccc4c23)n(CC(=O)Nc2ccccc2)n1` [Compound 308, 2-(3-Methyl-5-(6-oxo-5,6-dihydrobenzo[c][1,8]naphthyridin-1-ylamino)-1H-pyrazol-1-yl)-N-phenylacetamide] in this work.
An IC50 greater than 100 nM was found for `Cc1cc(Nc2ccnc3[nH]c(=O)c4ccccc4c23)n(CC(=O)Nc2ccc(F)c(F)c2)n1` [Compound 309, N-(3,4-difluorophenyl)-2-(3-methyl-5-(6-oxo-5,6-dihydrobenzo[c][1,8]naphthyridin-1-ylamino)-1H-pyrazol-1-yl)acetamide] in this work.
An IC50 greater than 100 nM was found for `O=C(Cc1cc(Nc2ccnc3[nH]c(=O)c4ccccc4c23)n[nH]1)Nc1ccc(F)c(F)c1` [Compound 313, N-(3,4-Difluorophenyl)-2-(3-(6-oxo-5,6-dihydrobenzo[c][1,8]naphthyridin-1-ylamino)-1H-pyrazol-5-yl)acetamide] in this work.
An IC50 greater than 100 nM was found for `O=C(Cc1cc(Nc2ccnc3[nH]c(=O)c4ccccc4c23)n[nH]1)Nc1cccc(F)c1` [Compound 314, N-(3-Fluorophenyl)-2-(3-(6-oxo-5,6-dihydrobenzo[c][1,8]naphthyridin-1-ylamino)-1H-pyrazol-5-yl)acetamide] in this work.
An IC50 greater than 100 nM was found for `O=C(Cc1cc(Nc2ccnc3[nH]c(=O)c4ccccc4c23)n[nH]1)Nc1ccccc1` [Compound 315, 2-(3-(6-Oxo-5,6-dihydrobenzo[c][1,8]naphthyridin-1-ylamino)-1H-pyrazol-5-yl)-N-phenylacetamide] in this work.
An IC50 greater than 100 nM was found for `O=C(Nc1ccccc1)c1ccc(Nc2ccnc3[nH]c(=O)c4ccccc4c23)cc1` [Compound 317, 4-(6-Oxo-5,6-dihydrobenzo[c][1,8]naphthyridin-1-ylamino)-N-phenylbenzamide] in this work.
An IC50 of 11 to 100 nM was found for `O=C(Nc1ccc(Nc2ccnc3[nH]c(=O)c4ccccc4c23)cc1F)c1ccccc1` [Compound 320, N-(2-Fluoro-4-(6-oxo-5,6-dihydrobenzo[c][1,8]naphthyridin-1-ylamino)phenyl) benzamide] in this work.
An IC50 of less than 11 nM was found for `O=C(Nc1ccc(Nc2ccnc3[nH]c(=O)c4ccccc4c23)c(F)c1)c1ccccc1` [Compound 321, N-(3-Fluoro-4-(6-oxo-5,6-dihydrobenzo[c][1,8]naphthyridin-1-ylamino)phenyl)benzamide] in this work.
An IC50 greater than 100 nM was found for `Cc1cc(Nc2ccnc3[nH]c(=O)c4ccccc4c23)ccc1NC(=O)c1ccccc1` [Compound 322, N-(2-Methyl-4-(6-oxo-5,6-dihydrobenzo[c][1,8]naphthyridin-1-ylamino)phenyl)benzamide] in this work.
An IC50 of 11 to 100 nM was found for `O=C(Nc1ccc(Nc2ccnc3[nH]c(=O)c4ccccc4c23)cn1)c1ccccc1` [Compound 324, N-(5-(6-Oxo-5,6-dihydrobenzo[c][1,8]naphthyridin-1-ylamino)pyridin-2-yl)benzamide] in this work.
An IC50 of 11 to 100 nM was found for `O=C(Nc1ccc(CNc2ccnc3[nH]c(=O)c4ccccc4c23)cc1)c1ccccc1` [Compound 325, N-(4-((6-Oxo-5,6-dihydrobenzo[c][1,8]naphthyridin-1-ylamino)methyl)phenyl)benzamide] in this work.
An IC50 of 11 to 100 nM was found for `O=C(Nc1ccc(CNc2ccnc3[nH]c(=O)c4ccccc4c23)cc1)c1cc(F)cc(F)c1` [Compound 326, 3,5-Difluoro-N-(4-((6-oxo-5,6-dihydrobenzo[c][1,8]naphthyridin-1-ylamino)methyl)phenyl)benzamide] in this work.
An IC50 of 11 to 100 nM was found for `O=C(NCc1ccc(Nc2ccnc3[nH]c(=O)c4ccccc4c23)cc1)c1ccccc1` [Compound 327, N-(4-(6-oxo-5,6-dihydrobenzo[c][1,8]naphthyridin-1-ylamino)benzyl)benzamide] in this work.
An IC50 of 11 to 100 nM was found for `O=c1[nH]c2nccc(Nc3ccc(OCc4ccccc4)cc3)c2c2ccccc12` [Compound 329, 1-(4-(Benzyloxy)phenylamino)benzo[c][1,8]naphthyridin-6(5H)-one] in this work.
An IC50 of 11 to 100 nM was found for `O=c1[nH]c2nccc(Nc3ccc(OCc4cccc(F)c4)cc3)c2c2ccccc12` [Compound 330, 1-(4-(3-Fluorobenzyloxy)phenylamino)benzo[c][1,8]naphthyridin-6(5H)-one] in this work.
An IC50 of 11 to 100 nM was found for `O=c1[nH]c2nccc(Nc3ccc4c(cnn4Cc4ccccc4)c3)c2c2ccccc12` [Compound 333, 1-(1-Benzyl-1H-indazol-5-ylamino)benzo[c][1,8]naphthyridin-6(5H)-one] in this work.
An IC50 greater than 100 nM was found for `Cn1ccc(-c2ccc(Nc3ccnc4[nH]c(=O)c5ccccc5c34)cc2)n1` [Compound 335, 1-(4-(1-Methyl-1H-pyrazol-3-yl)phenylamino)benzo[c][1,8]naphthyridin-6(5H)-one] in this work.
An IC50 greater than 100 nM was found for `O=c1[nH]c2nccc(Nc3ccc(NS(=O)(=O)c4ccccc4)cc3)c2c2ccccc12` [Compound 341, N-(4-(6-Oxo-5,6-dihydrobenzo[c][1,8]naphthyridin-1-ylamino)phenyl)benzenesulfonamide] in this work.
An IC50 of 11 to 100 nM was found for `CNC(=O)Nc1ccc(Nc2ccnc3[nH]c(=O)c4ccccc4c23)cc1` [Compound 342, 1-Methyl-3-(4-(6-oxo-5,6-dihydrobenzo[c][1,8]naphthyridin-1-ylamino)phenyl)urea] in this work.
An IC50 of less than 11 nM was found for `O=C(Nc1ccccc1)Nc1ccc(Nc2ccnc3[nH]c(=O)c4ccccc4c23)cc1` [Compound 343, 1-(4-(6-Oxo-5,6-dihydrobenzo[c][1,8]naphthyridin-1-ylamino)phenyl)-3-phenylurea] in this work.
An IC50 of 11 to 100 nM was found for `O=C(Nc1ccc(Nc2ccnc3[nH]c(=O)c4ccccc4c23)cc1)c1cccnc1` [Compound 344] in this work.
An IC50 of 11 to 100 nM was found for `Cn1ccc(C(=O)Nc2ccc(Nc3ccnc4[nH]c(=O)c5ccccc5c34)cc2)n1` [Compound 345, 1-methyl-N-(4-(6-oxo-5,6-dihydrobenzo[c][1,8]naphthyridin-1-ylamino)phenyl)-1H-pyrazole-3-carboxamide] in this work.
